pIC50: −log10 of the molar value. Activity calls are given as the source filed them. The calls are words filed in the database; no cut-off is given here.
How the values were obtained:
Lewis lung carcinoma [1] = test: Antitumor immunity against mouse Lewis lung carcinoma cell line overexpressing PD-L1 co-cultured with concanavalin A stimulated BALB/c mouse spleen T cell assessed as increase in T cell infiltration into tumor matrix at 20 nM incubated for 48 to 72 hrs by fluorescence microscopy; type: functional, cell-based; conditions: time 48-72 hrs
[2] = Antitumor activity against mouse Lewis lung carcinoma cell line overexpressing PD-L1 implanted in C57 mouse model assessed as increase in infiltration of CD3 positive CD8 positive T cells in tumor by measuring viable cells at 20 mg/kg,ip administrated once every three days for 19 days by flow cytometry analysis (reference value: 84.51%); type: functional; conditions: time 19 day
[3] = Antitumor activity against mouse Lewis lung carcinoma cell line overexpressing PD-L1 implanted in C57 mouse model assessed as increase in CD8 positive GzmB positive T cells in tumor at 20 mg/kg,ip administrated once every three days for 19 days by flow cytometry analysis (reference value: 9.11%); type: functional; conditions: time 19 day
[4] = Metabolic stability in human liver microsomes assessed as intrinsic clearance; type: ADME, Microsome; conditions: read-out: CLH
[5] = Antitumor activity against mouse Lewis lung carcinoma cell line overexpressing PD-L1 implanted in C57 mouse model assessed as tumor growth inhibition at 20 mg/kg,ip administrated once every three days for 19 days; type: functional; conditions: 456 h, time 19 day, read-out: TGI
Lewis lung carcinoma [6] = test: Cytotoxicity against mouse Lewis lung carcinoma cell line assessed as cell growth inhibition at 0.25 to 4096 nM incubated for 48 hrs by MTT assay; type: functional, cell-based; conditions: dose 0.25-4096 nM
[7] = Toxicity in C57 mouse implanted with mouse Lewis lung carcinoma cell line overexpressing PD-L1 assessed as effect on heart viscera index at 20 mg/kg,ip administrated once every three days for 19 days; type: organism-based; conditions: in vivo, 456 h, time 19 day
[8] = Antitumor activity against mouse Lewis lung carcinoma cell line overexpressing PD-L1 implanted in C57 mouse model assessed as increase in infiltration of CD3 positive CD4 positive T cells in tumor by measuring late apoptotic cells at 20 mg/kg,ip administrated once every three days for 19 days by flow cytometry analysis (reference value: 12.07%); type: functional; conditions: time 19 day
T-cell [9] = test: Immunomodulatory activity in concanavalin A stimulated BALB/c mouse T-lymphocyte co-cultured with mouse CT26 cells overexpressing PD-L1 assessed as T cell proliferation at 20 nM incubated for 48 hrs by flow cytometry (reference value: 58.47 +/- 2.07%); type: functional
Lewis lung carcinoma [10] = test: Antitumor immunity against mouse Lewis lung carcinoma cell line overexpressing PD-L1 co-cultured with concanavalin A stimulated BALB/c mouse spleen T cell assessed as increase in T cell infiltration into tumor matrix at 80 nM incubated for 48 to 72 hrs by fluorescence microscopy; type: functional, cell-based; conditions: time 48-72 hrs
[11] = Antitumor activity against mouse Lewis lung carcinoma cell line overexpressing PD-L1 implanted in C57 mouse model assessed as increase in infiltration of CD3 positive CD4 positive T cells in tumor by measuring necrotic cells at 20 mg/kg,ip administrated once every three days for 19 days by flow cytometry analysis (reference value: 1.72%); type: functional; conditions: time 19 day
CT26 [12] = test: Cytotoxicity against mouse CT26 cells overexpressing PD-L1 assessed as cell growth inhibition at 0.25 to 4096 nM incubated for 48 hrs by MTT assay; type: functional, cell-based; conditions: dose 0.25-4096 nM
T-cell [13] = test: Immunomodulatory activity in concanavalin A stimulated BALB/c mouse T-lymphocyte co-cultured with mouse CT26 cells assessed as increase in T cell proliferation at 5 to 80 nM incubated for 48 hrs by flow cytometry; type: functional, cell-based; conditions: dose 5-80 nM
[14] = target: Programmed cell death protein 1/Programmed cell death 1 ligand 1 (Homo sapiens, UniProt Q15116+Q9NZQ7); test: Inhibition of PD-1/PD-L1 (unknown origin) protein-protein interaction incubated for 105 mins by HTRF assay; type: protein-complex assay
Sequence of Programmed cell death protein 1/Programmed cell death 1 ligand 1 (Q15116 whole entry): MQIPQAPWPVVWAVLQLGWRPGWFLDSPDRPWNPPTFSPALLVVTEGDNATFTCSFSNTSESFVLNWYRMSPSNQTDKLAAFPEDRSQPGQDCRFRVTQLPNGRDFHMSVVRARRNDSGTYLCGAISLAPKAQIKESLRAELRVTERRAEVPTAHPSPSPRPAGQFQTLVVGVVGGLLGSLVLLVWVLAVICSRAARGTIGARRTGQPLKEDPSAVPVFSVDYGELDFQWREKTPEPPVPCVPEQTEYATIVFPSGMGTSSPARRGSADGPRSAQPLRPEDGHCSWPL
Sequence of Programmed cell death protein 1/Programmed cell death 1 ligand 1 (Q9NZQ7 whole entry): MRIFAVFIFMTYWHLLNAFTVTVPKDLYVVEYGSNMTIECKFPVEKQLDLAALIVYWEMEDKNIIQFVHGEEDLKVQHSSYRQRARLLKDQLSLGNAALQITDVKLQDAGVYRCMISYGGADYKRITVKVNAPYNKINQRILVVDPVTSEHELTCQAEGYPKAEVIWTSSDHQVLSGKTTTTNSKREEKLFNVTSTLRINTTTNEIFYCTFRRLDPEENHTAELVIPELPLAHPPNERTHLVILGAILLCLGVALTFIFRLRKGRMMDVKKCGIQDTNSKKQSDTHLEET

[15] = Toxicity in C57 mouse implanted with mouse Lewis lung carcinoma cell line overexpressing PD-L1 assessed as effect on kidney viscera index at 20 mg/kg,ip administrated once every three days for 19 days; type: organism-based; conditions: in vivo, 456 h, time 19 day
T-cell [16] = test: Immunomodulatory activity in concanavalin A stimulated BALB/c mouse T-lymphocyte co-cultured with mouse CT26 cells overexpressing PD-L1 assessed as increase in proportion of CD3 positive CD8 positive T cells at 20 nM incubated for 48 hrs by flow cytometry (reference value: 15.01%); type: functional
[17] = Toxicity in C57 mouse implanted with mouse Lewis lung carcinoma cell line overexpressing PD-L1 assessed as effect on liver viscera index at 20 mg/kg,ip administrated once every three days for 19 days; type: organism-based; conditions: in vivo, 456 h, time 19 day
T-cell [18] = test: Immunomodulatory activity in concanavalin A stimulated BALB/c mouse T-lymphocyte co-cultured with mouse CT26 cells overexpressing PD-L1 assessed as increase in T cell proliferation at 5 to 80 nM incubated for 48 hrs by flow cytometry; type: functional, cell-based; conditions: dose 5-80 nM
T-cell [19] = test: Immunomodulatory activity in concanavalin A stimulated BALB/c mouse T-lymphocyte co-cultured with mouse CT26 cells overexpressing PD-L1 assessed as increase in proportion of CD3 positive CD8 positive T cells at 80 nM incubated for 48 hrs by flow cytometry (reference value: 14.38%); type: functional
[20] = Toxicity in C57 mouse implanted with mouse Lewis lung carcinoma cell line overexpressing PD-L1 assessed as effect on lung viscera index at 20 mg/kg,ip administrated once every three days for 19 days; type: organism-based; conditions: in vivo, 456 h, time 19 day
[21] = Antitumor activity against mouse Lewis lung carcinoma cell line overexpressing PD-L1 implanted in C57 mouse model assessed as increase in infiltration of CD3 positive CD8 positive T cells in tumor by measuring necrotic cells at 20 mg/kg,ip administrated once every three days for 19 days by flow cytometry analysis (reference value: 5.17%); type: functional; conditions: time 19 day
[22] = Antitumor activity against mouse Lewis lung carcinoma cell line overexpressing PD-L1 implanted in C57 mouse model assessed as increase in infiltration of CD3 positive CD4 positive T cells in tumor by measuring viable cells at 20 mg/kg,ip administrated once every three days for 19 days by flow cytometry analysis (reference value: 83.97%); type: functional; conditions: time 19 day
[23] = Antitumor activity against mouse Lewis lung carcinoma cell line overexpressing PD-L1 implanted in C57 mouse model assessed as increase in infiltration of CD3 positive CD8 positive T cells in tumor by measuring early apoptotic cells at 20 mg/kg,ip administrated once every three days for 19 days by flow cytometry analysis (reference value: 1.32%); type: functional; conditions: time 19 day
[24] = Metabolic stability in rat liver microsomes assessed as intrinsic clearance; type: ADME, Microsome; conditions: read-out: CLH
[25] = Metabolic stability in human liver microsomes assessed as half life; type: ADME, Microsome
[26] = Antitumor activity against mouse Lewis lung carcinoma cell line overexpressing PD-L1 implanted in C57 mouse model assessed as increase in infiltration of CD3 positive CD4 positive T cells in tumor by measuring early apoptotic cells at 20 mg/kg,ip administrated once every three days for 19 days by flow cytometry analysis (reference value: 2.24%); type: functional; conditions: time 19 day
[27] = Toxicity in C57 mouse implanted with mouse Lewis lung carcinoma cell line overexpressing PD-L1 assessed as reduction in body weight at 20 mg/kg,ip administrated once every three days for 19 days; type: organism-based; conditions: in vivo, 456 h, time 19 day
T-cell [28] = test: Immunomodulatory activity in concanavalin A stimulated BALB/c mouse T-lymphocyte co-cultured with mouse CT26 cells overexpressing PD-L1 assessed as increase in proportion of CD3 positive CD69 positive T cells at 20 nM incubated for 48 hrs by flow cytometry (reference value: 39.97%); type: functional
[29] = Toxicity in C57 mouse implanted with mouse Lewis lung carcinoma cell line overexpressing PD-L1 assessed as effect on spleen viscera index at 20 mg/kg,ip administrated once every three days for 19 days; type: organism-based; conditions: in vivo, 456 h, time 19 day
[30] = Metabolic stability in rat liver microsomes assessed as half life; type: ADME, Microsome
T-cell [31] = test: Immunomodulatory activity in concanavalin A stimulated BALB/c mouse T-lymphocyte co-cultured with mouse CT26 cells assessed as T cell proliferation at 20 nM incubated for 48 hrs by flow cytometry (reference value: 64.08 +/- 0.91%); type: functional
CT26 [32] = test: Cytotoxicity against mouse CT26 cells assessed as cell growth inhibition at 0.25 to 4096 nM incubated for 48 hrs by MTT assay; type: functional, cell-based; conditions: dose 0.25-4096 nM
T-cell [33] = test: Immunomodulatory activity in concanavalin A stimulated BALB/c mouse T-lymphocyte co-cultured with mouse CT26 cells overexpressing PD-L1 assessed as increase in proportion of CD3 positive CD69 positive T cells at 80 nM incubated for 48 hrs by flow cytometry (reference value: 41.22%); type: functional
Lewis lung carcinoma [34] = test: Cytotoxicity against mouse Lewis lung carcinoma cell line overexpressing PD-L1 assessed as cell growth inhibition at 0.25 to 4096 nM incubated for 48 hrs by MTT assay; type: functional, cell-based; conditions: dose 0.25-4096 nM
[35] = Antitumor activity against mouse Lewis lung carcinoma cell line overexpressing PD-L1 implanted in C57 mouse model assessed as increase in infiltration of CD3 positive CD8 positive T cells in tumor by measuring late apoptotic cells at 20 mg/kg,ip administrated once every three days for 19 days by flow cytometry analysis (reference value: 9%); type: functional; conditions: time 19 day
[36] = Antitumor activity against mouse Lewis lung carcinoma cell line overexpressing PD-L1 implanted in C57 mouse model assessed as increase in CD8 positive IFN-gamma positive T cells in tumor at 20 mg/kg,ip administrated once every three days for 19 days by flow cytometry analysis (Rvb =20.66%); type: functional; conditions: time 19 day

CC(C)(CO)NCc1cnc2c(N3CCc4c(-c5ccccc5)cccc43)ncnc2c1
Activity (Lewis lung carcinoma [1]): Active | Activity [2]: 75.06% | Activity [3]: 21.13% | microsomal CLint [4]: 6.9 µL/min/mg | inhibition in vivo at 20 mg/kg [5]: 61.9% | Activity (Lewis lung carcinoma [6]): inactive | Activity [7]: Non-Toxic | Activity [8]: 22.29% | Activity (T-cell [9]): 62.69% | Activity (Lewis lung carcinoma [10]): Active | Activity [11]: 0.78% | Activity (CT26 [12]): inactive | Activity (T-cell [13]): Active | pIC50 [14]: 8.20 | Activity [15]: Non-Toxic | Activity (T-cell [16]): 23.79% | Activity [17]: Non-Toxic | Activity (T-cell [18]): Active | Activity (T-cell [19]): 26.32% | Activity [20]: Toxic | Activity [21]: 2.4% | Activity [22]: 73.8% | Activity [23]: 4.77% | microsomal CLint [24]: 8.8 µL/min/mg | half-life [25]: 3.34 h | Activity [26]: 3.13% | Activity [27]: Toxic | Activity (T-cell [28]): 56.41% | Activity [29]: Non-Toxic | half-life [30]: 2.64 h | Activity (T-cell [31]): 54.61% | Activity (CT26 [32]): inactive | Activity (T-cell [33]): 61.21% | Activity (Lewis lung carcinoma [34]): inactive | Activity [35]: 17.77% | Activity [36]: 31.1%

Source: ChEMBL document CHEMBL5321280, “Novel 4-Arylindolines Containing a Pyrido[3,2-d]pyrimidine Moiety as the Programmed Cell Death-1/Programmed Cell Death-Ligand 1 Interaction Inhibitors for Tumor Immunotherapy” (J Med Chem, 2023)
